This note sets out measurements from patent publication US8722376B2, “Firefly luciferase” (Olympus Corporation, priority 2011, dated 2014).

The subject of assay [1] is SP1 luciferase, Luciola sp1 (Malaysian firefly, genus Luciola), wild type, SEQ ID NO: 1. In words: Km of SP1 luciferase (luminescence kinetic analysis). The format is biochemical. Particulars: for Km: 0.1 M Tris-HCl (pH 8.0), MgSO4, Michaelis Menten curve fitting; for Km values with respect to ATP and D-luciferin, compared with known luciferases: FIG. 2, SP1 luciferase versus known luciferases.
Description: The measurements were carried out ten times for each sample, and the average of absorbency was used for the calculation.
Various 12 types of ATP solutions were prepared by adding ATP to 0.1 M Tris-HCl (pH 8.0). These solutions contain ATP at final concentration of 5, 10, 20, 40, 80, 160, 320, 480, 640, 800, 1280, 1600, or 1920 μM. These ATP solutions were each injected into 96-hole in a microplate at a volume of 50 μl. […] Measurement was repeated 3 times for each ATP concentration.
The peak intensities of the obtained photon count value were plotted with respect to ATP concentration S, with an initial rate V. The plots were subjected to curve fitting of Michaelis Menten type, thereby giving Km value. The curve fitting was performed by a nonlinear least-squares method, and the search of the parameter was performed by a Newton method.

The subject of assay [2] is ELuc (luciferase derived from known click beetles). In words: Km of ELuc luciferase (luminescence kinetic analysis). Particulars: 0.1 M Tris-HCl (pH 8.0), MgSO4, measured in a similar manner. The class given is biochemical, click beetle. How it is done:
(§1) A solution of 0.1 M Tris-HCl (pH 8.0) containing each of the purified luciferase, 4 mM of ATP, and 8 mM of MgSO4 was connected to the standard pump of the luminometer, and the measurements was carried out at the same time as addition of 50 μl of the solution to the well. A Luminescensor (ATTO) was used for the measurements. Measurements were repeated 3 times for each luciferin concentration.
(§2) The peak intensity of the obtained photo count value was plotted with respect to luciferin concentration S, defining the initial rate as V. The plots were subjected to curve fitting of Michaelis Menten type, thereby giving Km values. The curve fitting was performed by a nonlinear least-squares method, and the search of the parameter was performed by a Newton method.
(§3) 4-3. Measurement of Km Value with Respect to ATP
(§4) Under various ATP concentrations, the luminescent intensity of the obtained luciferase was measured. Based on the results, Km values with respect to ATP was determined.
(§5) Various […] types of ATP solutions were prepared by adding ATP to 0.1 M Tris-HCl (pH 8.0). These solutions contain ATP at final concentration of 5, 10, 20, 40, 80, 160, 320, 480, 640, 800, 1280, 1600, or 1920 μM. These ATP solutions were each injected into 96-hole in a microplate at a volume of 50 μl. […]
(§6) Table 1 also indicates Km values for known firefly luciferases, measured in a similar manner. […]

For assay [3], the system named is CBG (luciferase derived from known click beetles). In words: Km of CBG luciferase (luminescence kinetic analysis). The class given is biochemical, click beetle. Particulars: 0.1 M Tris-HCl (pH 8.0), MgSO4, measured in a similar manner. How it is done:
as §1, §2, §3, §4, §5, §6

Assay [4] concerns CBR (luciferase derived from known click beetles). In words: Km of CBR luciferase (luminescence kinetic analysis). The class given is biochemical, click beetle. As to conditions: 0.1 M Tris-HCl (pH 8.0), MgSO4, measured in a similar manner. How it is done:
as §1, §2, §3, §4, §5, §6

Assay [5] can be described thus: Measurement of luminescent intensity of purified luciferase compared with Rhodamine 6G and P. pyralis luciferase. The class given is biochemical. Particulars: purified enzymes, integration of light 300 nm to 650 nm for 10 seconds. How it is done: Rhodamine 6G was dissolved into 0.1 M citric acid/0.2 M Na2HPO4 (pH 4.0) solution. The Rhodamine 6G solution was centrifuged for 1 minute at 15,000 rpm, and the supernatant was collected. The collected supernatant is diluted with 0.1 M citric acid/0.2 M Na2HPO4 solution 1000 fold, and the absorbance thereof was measured. Measurement was carried out by NanoVue (GE Healthcare). The measurement at 530 nm was repeated 5 times, and the average absorbance 0.048 was obtained. The concentration of the original Rhodamine 6G solution was calculated by using ε value of Rhodamine (1.16×10^5 mol^−1cm^−1), and the value 414 μM was obtained. The solution was diluted with 0.1 M citric acid/0.2 M Na2HPO4 solution (pH 4.0) to prepare 30 μM of a diluted solution.
Solution 1 having the following composition was prepared with use of the diluted solution.
Solution 2 was prepared by dissolving bis (2,4,6-trichlorophenyl)oxlate (TCPO) so that the final concentration thereof is 3 mM.
100 μl of solution 1 was injected for each well of 96-hole microplate. Measurement was started at the same time as addition of 50 μl of solution 2 with use of a pump, and integration value of photon counts for 10 seconds from addition of solution 2 was obtained. […]
A concentration of the obtained sample was measured by a colorimetric method, and the concentrations of P. pyralsis luciferase and SP1 luciferase were confirmed. […]

The test system of a further assay is HeLa cell. In words: Luminescent intensity of SP1 luciferase expressed in a mammal cell. The format is cell-based. As to conditions: expression in HeLa cell, 1 mM D-luciferin, integration for 10 seconds. How it is done:
SP1 luciferase was expressed in a HeLa cell, and the luminescent intensity in a cell was measured.
For introduction of SP1 luciferase gene, four types of expression vectors were prepared. Nucleic acids each containing a gene prepared by deleting recognition sequences of BamHI and EcoRI from the original SP1 luciferase gene obtained from Luciola sp1 (SEQ ID NO: 3), a gene further optimized for expression in a mammal cell (SEQ ID NO: 4), and two types of genes to which Kozak sequence was further added (SEQ ID NOS: 29 and 30) were each inserted into the multi-cloning site between BamHI and EcoRI of pcDNA3.1(+) vector (Invitrogen). Further, for comparison, a nucleic acid containing a known P. pyralis luciferase gene optimized for expression in a mammal cell was inserted into pcDNA3.1(+) vector similarly.
Five types of plasmids obtained in such a manner described above were each subjected to gene transfection to a HeLa cell by a lipofection method, and D-MEM culture medium was exchanged after 24 hours. […] The luminescent intensities shown in FIG. 4 are integration values for 10 seconds.

The subject of a further assay is HeLa cells. In words: Luminescence activity of SP1 mutants expressed in HeLa cells, corrected by hRluc internal standard. The format is cell-based. Particulars: 90 minutes after D-luciferin addition, corrected by hRluc luminescence at 10 minutes. From the text: The fragment of the nucleic acid having the base sequence of SEQ ID NO: 35 was inserted into between SgfI site and PmeI site of a pF9A CMV hRluc-neo FlexiR vector (Promega). The fragment of the nucleic acid having the base sequence of SEQ ID NO: 36 was inserted into between SgfI site and PmeI site of another pF9A CMV hRluc-neo FlexiR vector. Two types of the obtained expression vectors were each introduced into HeLa cells, and mutants were expressed.
The luminescence intensity of two types of cells expressing mutants was detected by using a cell expressing the original SP1 luciferase without mutations as a comparison. Here, the luminescence intensity of each Hela cell was corrected using the luminescence based on hRluc gene of pF9A CMV hRluc-neo FlexiR vector (Promega) as an internal standard.

[6] abbreviates: D-luciferin, read-out: Km for ATP.
[7] abbreviates: read-out: Km for D-luciferin, ATP.

Read-outs that look alike come from different tables or passages of the source.

By Km is commonly meant the concentration of substrate that gives half-maximal velocity. Take `Nc1ncnc2c1ncn2[C@@H]1O[C@H](COP(=O)(O)OP(=O)(O)OP(=O)(O)O)[C@@H](O)[C@H]1O` [ATP]: the Km in assay [1] (setting [6]) stood at 195 µM; in assay [2] (setting [6]) it was 182 µM; in assay [3] (setting [6]), 58.4 µM; in assay [4] (setting [6]) it was 47.1 µM. In addition, in assay [1], the “Km values with respect to ATP and D-luciferin, compared with known luciferases” value is “higher Km values”.

Consider `O=C(O)[C@H]1CSC(c2nc3ccc(O)cc3s2)=N1` [D-luciferin], for which the “Km values with respect to ATP and D-luciferin, compared with known luciferases” value in assay [1] is reported as “higher Km values”. For the same molecule, the Km in assay [1] (setting [7]) stood at 44.6 µM; in assay [2] (setting [7]), 12.7 µM; in assay [3] (setting [7]), 1.44 µM; in assay [4] (setting [7]), 33.3 µM.

B1: SP1 luciferase: luciferase of SEQ ID NO: 1 derived from Malaysian firefly Luciola sp1 (protein, listed as Luciola sp.)
chain: MNNMDDGEHIVVGPQPFYPVEEGSAGTQLLKYLKQYSKLGAIAFSNAHTKVDISYAEYLDTSVRLAQALINYGIPIDGRIALCSENCEEFYFPVLAGLYIGAGVAPTNEIYTLRELVHSLGISKPTIVFSSKKGLEKVITVQKTVTCIKTIVILDSKVDYQGYDCLETFIKKYLPAGFSVENFIPREVNRKEQVALVMNSSGSTGLPKGVQITHEGAVTRFSHARDPIYGNQVSPGTAILTIVPFHHGFGMFTNLGYLTCGYRIVMLTKFDEELFLKTLADYKCTSVILVPTLFAILSKSVLLEKYDLSNLVEIASGGAPLAKEVGEAVARRFNLPGIRQGYGLTETTSAIIITPEGDDKPGASGKIVPLFRAKVVDLDTQKTLGPNRRGEICVKGPMLMKGYVDDPVATSQIIDKDGWLHTGDIGYFDEDKHFFIVDRLKSLIKYKGYQVPPAELESVLLQHPDIFDAGVAGLPDPLAGELPGAVVVLEKGRHMTEQQVMDYVAGQVSNAKRLRGGVRFVDEVPKGLTGKIDSKAIREILKSPKAKM
For B1, in assay [5], the “luminescent intensity in comparison to that of P. pyralis luciferase” value is 4.9 times.

B2: SP1 luciferase codon optimized: SP1 luciferase expressed from gene optimized for expression in a mammal cell (SEQ ID NO: 4) (protein, listed as Luciola sp.)
chain: MNNMDDGEHIVVGPQPFYPVEEGSAGTQLLKYLKQYSKLGAIAFSNAHTKVDISYAEYLDTSVRLAQALINYGIPIDGRIALCSENCEEFYFPVLAGLYIGAGVAPTNEIYTLRELVHSLGISKPTIVFSSKKGLEKVITVQKTVTCIKTIVILDSKVDYQGYDCLETFIKKYLPAGFSVENFIPREVNRKEQVALVMNSSGSTGLPKGVQITHEGAVTRFSHARDPIYGNQVSPGTAILTIVPFHHGFGMFTNLGYLTCGYRIVMLTKFDEELFLKTLADYKCTSVILVPTLFAILSKSVLLEKYDLSNLVEIASGGAPLAKEVGEAVARRFNLPGIRQGYGLTETTSAIIITPEGDDKPGASGKIVPLFRAKVVDLDTQKTLGPNRRGEICVKGPMLMKGYVDDPVATSQIIDKDGWLHTGDIGYFDEDKHFFIVDRLKSLIKYKGYQVPPAELESVLLQHPDIFDAGVAGLPDPLAGELPGAVVVLEKGRHMTEQQVMDYVAGQVSNAKRLRGGVRFVDEVPKGLTGKIDSKAIREILKSPKAKM
Take B2: in the assay on HeLa cell, the “increase of luminescent intensity in comparison to SP1 luciferase without codon optimization” value is given as 16.2 times and the “luminescent intensity in comparison to that of P. pyralis luciferase after codon optimization” value worked out at 1.7 times.

B3: SP1 mutant 1: SP1 luciferase with mutations D438G, I532R and E356R; amino acid sequence SEQ ID NO: 37 (protein)
chain: MNNMDDGEHIVVGPQPFYPVEEGSAGTQLLKYLKQYSKLGAIAFSNAHTKVDISYAEYLDTSVRLAQALINYGIPIDGRIALCSENCEEFYFPVLAGLYIGAGVAPTNEIYTLRELVHSLGISKPTIVFSSKKGLEKVITVQKTVTCIKTIVILDSKVDYQGYDCLETFIKKYLPAGFSVENFIPREVNRKEQVALVMNSSGSTGLPKGVQITHEGAVTRFSHARDPIYGNQVSPGTAILTIVPFHHGFGMFTNLGYLTCGYRIVMLTKFDEELFLKTLADYKCTSVILVPTLFAILSKSVLLEKYDLSNLVEIASGGAPLAKEVGEAVARRFNLPGIRQGYGLTETTSAIIITPRGDDKPGASGKIVPLFRAKVVDLDTQKTLGPNRRGEICVKGPMLMKGYVDDPVATSQIIDKDGWLHTGDIGYFDEDKHFFIVGRLKSLIKYKGYQVPPAELESVLLQHPDIFDAGVAGLPDPLAGELPGAVVVLEKGRHMTEQQVMDYVAGQVSNAKRLRGGVRFVDEVPKGLTGKRDSKAIREILKSPKAKM
modifications: Luciola sp. mutant 1
On to B3, for which the “luminescence intensity in comparison to the original SP1” value with HeLa cells is “increased”.

B4: SP1 mutant 2: SP1 luciferase with mutations E356R and V368A; amino acid sequence SEQ ID NO: 38 (protein)
chain: MNNMDDGEHIVVGPQPFYPVEEGSAGTQLLKYLKQYSKLGAIAFSNAHTKVDISYAEYLDTSVRLAQALINYGIPIDGRIALCSENCEEFYFPVLAGLYIGAGVAPTNEIYTLRELVHSLGISKPTIVFSSKKGLEKVITVQKTVTCIKTIVILDSKVDYQGYDCLETFIKKYLPAGFSVENFIPREVNRKEQVALVMNSSGSTGLPKGVQITHEGAVTRFSHARDPIYGNQVSPGTAILTIVPFHHGFGMFTNLGYLTCGYRIVMLTKFDEELFLKTLADYKCTSVILVPTLFAILSKSVLLEKYDLSNLVEIASGGAPLAKEVGEAVARRFNLPGIRQGYGLTETTSAIIITPRGDDKPGASGKIAPLFRAKVVDLDTQKTLGPNRRGEICVKGPMLMKGYVDDPVATSQIIDKDGWLHTGDIGYFDEDKHFFIVDRLKSLIKYKGYQVPPAELESVLLQHPDIFDAGVAGLPDPLAGELPGAVVVLEKGRHMTEQQVMDYVAGQVSNAKRLRGGVRFVDEVPKGLTGKIDSKAIREILKSPKAKM
modifications: Luciola sp. mutant 2
In the case of B4, the “luminescence intensity in comparison to the original SP1” value with HeLa cells is recorded as “increased”.
